Test results as given in the supplement of paper PMC10307832.

Experiments:
Test in all cases: relative viability (nuclei count vs DMSO), 5 days (fraction); higher = more cells survive
[1] = compound: C[C@@H](C(=O)N[C@@H](C1CCCCC1)C(=O)N2CCC[C@H]2C(=O)N[C@@H]3[C@@H](CC4=CC=CC=C34)OCC#CC#CCO[C@@H]5CC6=CC=CC=C6[C@@H]5NC(=O)[C@@H]7CCCN7C(=O)[C@H](C8CCCCC8)NC(=O)[C@H](C)NC)NC [AZD5582] + COc1cccc2cc(-c3nc([C@H]4CC[C@H](C(=O)O)CC4)n4ncnc(N)c34)[nH]c12 [OSI-027] (partner 0.5 µM)
Outline: (§1)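 One day after seeding in 1536-well plates, lung cancer cell lines were dosed by pin tool. Dosing was either single-drug or a fixed anchor-drug dose plus five library-drug doses (not always all listed) in √10 steps. After 5 days, nuclei were stained in one fix-and-stain step and counted on 4× images, and relative viability is the nuclei count of treated wells over that of vehicle wells, given as the median of duplicate plates.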

[2] = compound: C[C@@H](C(=O)N[C@@H](C1CCCCC1)C(=O)N2CCC[C@H]2C(=O)N[C@@H]3[C@@H](CC4=CC=CC=C34)OCC#CC#CCO[C@@H]5CC6=CC=CC=C6[C@@H]5NC(=O)[C@@H]7CCCN7C(=O)[C@H](C8CCCCC8)NC(=O)[C@H](C)NC)NC [AZD5582] + CS(=O)(=O)N1CCN(Cc2cc3nc(-c4cccc5[nH]ncc45)nc(N4CCOCC4)c3s2)CC1 [Pictilisib] (partner 1 µM)
Outline: as §1

[3] = compound: Cn1nnc2c(C(N)=O)ncn2c1=O [Temozolomide] + CS(=O)(=O)CCNCc1ccc(-c2ccc3ncnc(Nc4ccc(OCc5cccc(F)c5)c(Cl)c4)c3c2)o1 [Lapatinib] (partner 2 µM)
Outline: as §1

[4] = compound: Cn1nnc2c(C(N)=O)ncn2c1=O [Temozolomide] + Cc1nc(Nc2ncc(C(=O)Nc3c(C)cccc3Cl)s2)cc(N2CCN(CCO)CC2)n1 [Dasatinib] (partner 0.075 µM)
Outline: as §1

Row | Cell Line | relative viability ([1]; first compound 0.001581 µM) | relative viability ([1]; first compound 0.005 µM) | relative viability ([1]; first compound 0.01581 µM) | relative viability ([1]; first compound 0.05 µM) | relative viability ([2]; first compound 0.001581 µM) | relative viability ([2]; first compound 0.005 µM) | relative viability ([2]; first compound 0.01581 µM) | relative viability ([2]; first compound 0.05 µM) | relative viability ([3]; first compound 0.2 µM) | relative viability ([3]; first compound 0.6325 µM) | relative viability ([3]; first compound 2 µM) | relative viability ([3]; first compound 6.325 µM) | relative viability ([3]; first compound 20 µM) | relative viability ([4]; first compound 0.2 µM) | relative viability ([4]; first compound 0.6325 µM) | relative viability ([4]; first compound 2 µM) | relative viability ([4]; first compound 6.325 µM) | relative viability ([4]; first compound 20 µM)
1 | EMC-BAC-2 | 0.295 | 0.341 | 0.323 | 0.273 | 0.469 | 0.523 | 0.414 | 0.328 | 0.914 | 0.871 | 0.898 | 0.856 | 0.84 | 0.336 | 0.368 | 0.368 | 0.316 | 0.325
2 | NCI-H1651 | 0.667 | 0.813 |  | 0.983 | 0.616 | 0.656 | 0.539 | 0.723 | 0.969 | 0.881 | 0.876 | 0.754 | 0.934 | 0.418 | 0.464 | 0.377 | 0.356 | 0.529
3 | HCC-827 | 0.618 | 0.84 | 0.761 | 0.855 | 0.995 | 0.954 | 0.979 | 1.06 | 0.207 | 0.238 | 0.191 | 0.191 | 0.195 | 0.256 | 0.343 | 0.299 | 0.326 | 0.149
4 | SW 1573 | 0.72 | 0.66 | 0.662 | 0.862 | 0.487 | 0.612 | 0.635 | 0.674 | 1.13 | 1.17 | 1.04 | 0.897 | 1.02 | 0.532 | 0.533 | 0.594 | 0.355 | 0.489
5 | NCI-H460 | 0.614 | 0.774 | 0.642 | 0.779 | 0.277 | 0.329 | 0.366 | 0.337 | 1.23 | 1.03 | 1.12 | 1 | 1.24 | 0.525 | 0.547 | 0.556 | 0.417 | 0.486
6 | NCI-H1648 |  | 0.266 | 0.228 | 0.301 |  |  |  |  |  |  |  |  |  |  |  |  |  | 
7 | NCI-H647 | 0.599 | 0.704 | 0.463 | 0.75 | 0.388 | 0.449 |  | 0.458 | 1.41 | 1.16 | 1.27 | 0.891 | 0.275 | 0.206 | 0.22 | 0.303 | 0.117 | 0.111
8 | NCI-H322M | 0.508 | 0.713 |  | 0.562 | 0.554 | 0.632 | 0.715 | 0.625 |  | 0.568 | 0.574 | 0.599 | 0.535 |  | 0.275 | 0.274 | 0.256 | 0.218
9 | NCI-H1666 | 0.65 | 0.696 | 0.808 | 0.874 | 0.481 | 0.48 | 0.413 | 0.407 | 0.626 | 0.706 | 0.486 | 0.495 | 0.536 | 0.859 | 0.821 | 0.728 | 0.571 | 0.56
10 | NCI-H2342 | 0.518 | 0.587 | 0.509 | 0.659 |  |  |  |  |  |  |  |  |  | 0.311 | 0.301 | 0.304 | 0.312 | 0.297
11 | ChaGo-K-1 | 0.497 | 0.596 | 0.57 | 0.545 | 0.757 | 0.965 | 0.432 | 0.78 |  |  |  |  |  | 0.605 | 0.603 | 0.781 | 0.552 | 0.579
12 | CAL-12T | 0.239 | 0.339 | 0.281 | 0.323 | 0.305 | 0.314 | 0.265 | 0.351 |  | 0.585 | 0.601 | 0.607 | 0.8 | 0.444 | 0.455 | 0.427 | 0.381 | 0.346
13 | LOU-NH91 | 0.752 | 0.739 | 0.705 | 0.711 | 0.557 | 0.521 | 0.534 | 0.539 | 0.747 | 0.782 | 0.791 | 0.732 | 0.763 | 0.444 | 0.551 | 0.589 | 0.572 | 0.448
14 | NCI-H1975 | 0.688 | 0.956 | 0.829 | 0.9 | 0.3 | 0.348 | 0.315 | 0.409 | 1.02 | 0.946 | 1.1 | 0.846 | 0.987 | 0.466 | 0.365 | 0.413 | 0.361 | 0.462
15 | LC-2-ad | 0.823 | 1.05 | 0.725 | 0.957 | 0.327 | 0.673 | 0.644 | 0.662 | 0.961 | 1.02 | 0.962 | 0.964 | 0.895 | 0.628 | 0.662 | 0.836 | 0.471 | 0.472
16 | ABC-1 | 0.491 | 0.608 | 0.375 | 0.488 | 0.586 | 0.93 | 0.478 | 0.679 | 0.93 | 1.22 | 1.18 | 1.16 | 1.3 | 0.621 | 0.558 | 0.607 | 0.49 | 0.586
17 | NCI-H2405 | 0.651 | 0.647 | 0.485 | 0.565 | 0.459 | 0.856 |  | 0.612 | 1.12 | 1.08 | 1.21 | 0.921 | 1.05 | 0.214 | 0.222 | 0.254 | 0.199 | 0.21
18 | IA-LM |  |  |  |  |  | 0.355 | 0.347 | 0.314 | 0.913 | 0.976 | 0.935 | 0.758 | 0.716 |  |  |  |  | 
19 | NCI-H1355 | 0.355 | 0.468 | 0.288 | 0.322 | 0.372 | 0.379 | 0.289 | 0.361 | 1.06 | 1.01 | 0.974 | 1.02 | 0.99 | 0.713 | 0.732 | 0.828 | 0.699 | 0.818
